Assay results reported in ChEMBL document CHEMBL3044710, “Nematodetoxic aurovertin-type metabolites from a root-knot nematode parasitic fungus Pochonia chlamydosporia” (2010).
≈ marks a conversion by molar mass, not a printed value. Calls of active or inactive are those of the source. The rule behind the calls is not given here.

What was measured:
[1] = system: Meloidogyne incognita; test: Nematodexic activity against eggs of Meloidogyne incognita (root-knot nematode) assessed as mean corrected egg hatching inhibition rate at 25 to 400 ug/ml at 28 degC measured after 7 to 13 days by normal binocular microscopic analysis; type: functional
[2] = system: Panagrellus redivivus; test: Nematodexic activity against mixed juvenile and adult stages of Panagrellus redivivus assessed as disruption of internal structure, vacuole formation and residual empty somatocysts in the dead worm at 28 degC measured after 48 hr by normal binocular microscopic analysis; type: functional, organism-based
[3] = system: Panagrellus redivivus; test: Nematodexic activity against mixed juvenile and adult stages of Panagrellus redivivus assessed as mean corrected mortality rate at 28 degC measured after 48 hr by normal binocular microscopic analysis; type: functional
[4] = system: Meloidogyne incognita; test: Nematodexic activity against Meloidogyne incognita (root-knot nematode) assessed as mortality at 500 mg/l after 96 hr; type: functional

Row | Compound | inhibition (INH) [1] | Activity [2] | LC50 [3] [µg/mL] | mortality at 500 µg/mL [4] [%]
1 | COc1cc(=O)oc(/C=C/C=C/C=C/[C@@H]2O[C@@]3(C)C(C)O[C@](C)([C@H]2O)[C@@H]3O)c1C (some centres undefined) | <=5% |  |  | 
2 | CCC1O[C@]2(C)[C@@H](O)[C@H](/C=C/C=C/C=C/c3oc(=O)cc(OC)c3C)O[C@]1(C)[C@H]2O (some centres undefined) | <=5% |  |  | 
3 | COc1cc(=O)oc(/C=C/C=C/C=C/C2OC3(C)C([C@H](C)O)OC(C)(C2O)C3OC(C)=O)c1C (some centres undefined) [AUROVERTIN D] | <=5% | Active | 41.7 (≈ 87.5 µM) | 
4 | COc1cc(=O)oc(/C=C/C=C/C=C/C2OC3(C)C([C@H](C)O)OC(C)(C2O)C3O)c1C (some centres undefined) [AUROVERTIN F] | <=5% | Active | 88.6 (≈ 204 µM) | 
5 | C/C=C/[C@@H]1OC(=O)C=C[C@@H]1O [PHOMALACTONE] |  |  |  | 84
